Key:
[1] = biological target: T1, α1β3 GABAA receptor (β3 subunit; β3-α1 intersubunit site) (Homo sapiens, UniProt P14867+P28472); test: competitive prevention of KK200/KK123 photolabeling with MS readout; EC50 from oocyte two-electrode voltage clamp (potentiation of GABA currents); type: cell-based
T1 construct: gene GABRB3; human α1-8xHis-FLAG and human β3 GABAA receptor in HEK-T-Rex-293 membranes; human α1β3 in Xenopus oocytes for EC50; with GABAA receptor α1 subunit (GABRA1)
T1 sequence (P28472 26-473): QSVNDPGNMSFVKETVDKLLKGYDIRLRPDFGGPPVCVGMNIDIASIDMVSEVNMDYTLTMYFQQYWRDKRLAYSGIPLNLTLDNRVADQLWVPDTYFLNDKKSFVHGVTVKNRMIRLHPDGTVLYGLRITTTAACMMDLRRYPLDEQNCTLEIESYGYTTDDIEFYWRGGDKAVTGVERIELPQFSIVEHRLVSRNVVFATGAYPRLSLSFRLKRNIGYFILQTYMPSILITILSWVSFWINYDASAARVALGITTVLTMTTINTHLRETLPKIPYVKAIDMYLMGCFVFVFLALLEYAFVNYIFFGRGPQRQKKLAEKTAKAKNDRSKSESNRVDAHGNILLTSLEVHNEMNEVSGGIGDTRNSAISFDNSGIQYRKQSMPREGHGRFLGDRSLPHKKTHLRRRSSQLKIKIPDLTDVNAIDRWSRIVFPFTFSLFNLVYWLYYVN
T1 sequence (P14867 28-456): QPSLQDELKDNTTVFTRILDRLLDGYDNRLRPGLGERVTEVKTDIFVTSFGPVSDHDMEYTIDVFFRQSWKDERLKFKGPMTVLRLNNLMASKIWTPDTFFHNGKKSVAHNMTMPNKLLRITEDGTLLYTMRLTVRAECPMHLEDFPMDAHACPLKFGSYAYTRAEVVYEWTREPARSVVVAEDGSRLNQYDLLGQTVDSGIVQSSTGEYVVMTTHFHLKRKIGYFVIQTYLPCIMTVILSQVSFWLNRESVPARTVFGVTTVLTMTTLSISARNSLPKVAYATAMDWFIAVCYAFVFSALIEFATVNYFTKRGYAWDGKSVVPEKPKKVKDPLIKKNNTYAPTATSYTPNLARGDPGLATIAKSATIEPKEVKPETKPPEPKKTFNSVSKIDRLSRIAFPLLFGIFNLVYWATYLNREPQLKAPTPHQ

[2] = biological target: T2, α1β3 GABAA receptor (α1 subunit) (Homo sapiens, UniProt P14867); test: photoaffinity labeling ([…]) with middle-down MS identification of adducted residue; type: binding
T2 construct: gene GABRA1; human α1-8xHis-FLAG and human β3 GABAA receptor in HEK-T-Rex-293 membranes; with GABAA receptor β3 subunit (GABRB3)
T2 sequence (P14867 28-456): T1 sequence (P14867 28-456)
T2 sequence (P28472 26-473 partner): T1 sequence (P28472 26-473)

[3] = biological target: T1, α1β3 GABAA receptor (β3 subunit; β3-α1 intersubunit site); test: competitive prevention of KK123 photolabeling with MS readout; EC50 from oocyte two-electrode voltage clamp (weak potentiation of GABA currents); type: cell-based

In the case of `CC(=O)[C@H]1CC[C@H]2[C@@H]3CC[C@H]4C[C@H](O)CC[C@]4(C)[C@H]3CC[C@]12C` [ALLO, 3α-hydroxy-5α-pregnan-20-one], the EC50 [1] is reported as 80 ± 10 nM.
`C#CCCO[C@@H]1C[C@@]2(C)[C@@H]3CC[C@]4(C)[C@H](CC[C@H]4OC)[C@H]3CC3(N=N3)[C@@H]2C[C@H]1O` [KK152] was tested, and the “photoaffinity labeling (30 μM) with middle-down MS identification of adducted re” value [2] was “A fragmentation ion spectrum of this peptide identified Tyr415 as the site of KK152 adduction”.
`CC(=O)[C@@H]1CC[C@@H]2[C@H]3CC[C@@H]4C[C@@H](O)CC[C@@]4(C)[C@@H]3CC[C@]21C` [ent-ALLO, ent-allopregnanolone] was tested, and the EC50 [3] was 2000 ± 300 nM.

Reference: PMC9953308, “The Mechanism of Enantioselective Neurosteroid Actions on GABAA Receptors” (Biomolecules, 2023)
